Results from patent EP0332679B1, “ANTIVIRAL CO[…] […] AND METHOD FOR TREATING […]” (NEW YORK UNIVERSITY, priority 1987, dated 1989).
Several values for one entry are separate records, joined by “and”; a condition that tells them apart may be missing. Equal entries are not always repeated. Entries after “also recorded” stand apart in the source; their conditions may differ.

Legend:
[1] = tested on: Radiation Leukemia Virus (RadLV); assay: H-2 antigen expression in thymocytes (FACS) after intrathymic inoculation of radiation leukemia virus; type: in vivo, B10.T(6R) mice
Excerpt: The intrathymic inoculation of murine radiation leukemia virus in susceptible strains of mice results in the malignant transformation of the thymocytes and the development of overt leukemia (as described in Meruelo, D. et al J. Exp. Med. 147: 470-487, 1978). […] Among the early events which follow the viral infection in some mouse strains is a dramatic increase in the cell surface expression of class I H-2 antigens. This increase is then followed by a reduction in the expression of these antigens after the malignant transformation and subsequent development of leukemia. The changes in H-2 antigen expression have been utilized to monitor viral infectivity and to determine the effects of Hy and Ps on the level of infectivity of this virus.
Murine radiation leukemia virus (RadLV) was inoculated intrathymically into B10.T(6R) mice as described in Meruelo et al (supra). Groups of six mice were treated 24 h later with 30 µg per mouse of compound Hy administered intraperitoneally in isotonic saline solution. The mice were sacrificed ten days later and the expression of Class I H-2 antigens determined by analysis with a fluorescence activated cell sorter (Ortho Cytofluorograph Model 50H, Ortho Diagnostic Systems, Westwood, MA) (FACS), using X-56 anti-H-2D^d mouse monospecific antibodies (as described in Meruelo, et al supra; similar antibodies are available as ATCC No. HB75, American Type Culture Collection, Rockville, MD).

[2] = in vivo; cited from earlier work
[3] = in vivo; cited from earlier work; remark: listed apart in the source
[4] = tested on: Friend Leukemia Virus (FV); assay: Splenomegaly after Friend Leukemia Virus infection, compound given intraperitoneally 24 h after intravenous virus; type: in vivo, BALB/c mice; details: for Spleen weight: individual mice
Excerpt: Friend Leukemia virus (FV) an aggressive retrovirus induces an acute erythroleukemia in sensitive strains of mice such as BALB/c and NIH SWISS mice (as described in Friend, C. J. Exp. Med. 105: 307-324, 1957; Friend, C. et al Nat. Cancer Inst. Monogr. 22: 505-522, 1966; Friend, C. et al Proc. Natl. Acad. Sci. U.S.A. 68: 378-383, 1971). The malignant transformation is the result of the combined activities of the spleen focus forming virus (SFFV) and the ecotropic murine Friend Leukemia helper virus (F-MuLv). The acute erythroleukemia is characterized by hepatosplenomegaly (a marked increase in the size of the spleen and liver) and a severe anemia.
Friend Leukemia virus was prepared by homogenizing the enlarged spleen of a mouse previously infected with FV, 10 days after intravenous virus injection. The spleen was homogenized in phosphate buffered saline in a volume equal to 10 times the weight of the isolated spleen.
The effects of Hy and Ps on the increase in spleen size (splenomegaly) of BALB/c mice (Jackson Labs, Bar Harbor, ME) was examined. […] The animals were then sacrificed ten days later and their spleens weighed.

[5] = tested on: Friend Leukemia Virus (FV); assay: Splenomegaly after simultaneous intravenous co-administration of compound with FV; type: in vivo, mice; details: for Spleen Weights: individual mice
Experimental: A different experimental design was also tested involving the simultaneous intravenous co-administration of Ps with the FV complex. In this case, the viral preparation was mixed with Ps at various concentrations and the mixture was injected into the mouse tail vein in a final volume of 0.5ml. The mice were sacrificed ten days later, the spleens weighed and the level of inhibition of splenomegaly subsequently determined.

[6] = tested on: Friend Leukemia Virus (FV); assay: Liver function (serum liver-associated proteins) of FV infected mice with or without compound; type: in vivo, BALB/c mice; details: for CHOLEST: pooled serum of 4 mice
Excerpt: BALB/c mice were inoculated with FV at a concentration of 2x10⁵ FFU. Each group of animals contained 4 mice, and analyses were done in pooled aliquots.
In Table 3, BU = Total Bilirubin, AP = Alkaline phosphatase, LDH = Lactate dehydrogenase, SGOT = Serum glutamyl aminotransferase, SGPT = […], and GGT = Gamma-glutamyl-transpeptidase.

[7] = FV 2x10^5 FFU, 2 injections 80 μg/mouse
[8] = FV 2x10^5 FFU, single i.p. injection 80 μg/mouse
[9] = FV 10^6 FFU, 2 injections 80 µg/mouse
[10] = FV 10^6 FFU, single i.p. injection 80 µg/mouse
[11] = IPFVIVPS: FV intraperitoneal, Ps intravenous, pooled serum
[12] = IVFVIPPS: FV intravenous, Ps intraperitoneal, pooled serum

Structure (SMILES): Cc1cc(O)c2c(=O)c3c(O)cc(O)c4c5c(O)cc(O)c6c(=O)c7c(O)cc(C)c8c1c2c(c34)c(c78)c65 [Hy, hypericin]
- % inhibition (of virus-induced increase in H-2 antigen expression) ([1]; mouse, in vivo): (1) % inhibition = 100-[(Treated 30 μg) - (Base Line) / Virus Induced - Base Line] x100=82%
- % of cells stained with antibody ([1]; mouse, in vivo, ip): 76.7% and 77.2% and 96.3% and 84.8% and 54.0% and 97.8%
- % of cells stained with antibody, mean (x̄) ([1]; mouse, in vivo, ip): x̄=81.13%
- effect on RadLV-induced increase in H-2 expression (in words) ([1]; mouse, in vivo, ip): significant inhibition in the increase in H-2 expression in four of the six mice tested
- effect on the human organism (in words) [2]: tonic and tranquilizing effect
- photosensitivity (in words) [3]: produce photosensitivity upon ingestion

Structure (SMILES): Cc1cc(O)c2c(=O)c3c(O)cc(O)c4c5c(O)cc(O)c6c(=O)c7c(O)cc(CO)c8c1c2c(c34)c(c65)c78 [Ps, pseudohypericin]
- % Inhib (splenomegaly) [4, 7]: 81.7%
- Net change from control (spleen weight) [4, 7]: Net change from control=0.1292
- Spleen weight, mean (x̄) [4, 7]: x̄=0.3138±0.1197 g
- % Inhib (splenomegaly) ([4]; FV 2x10^5 FFU, 2 injections 80 μg/mouse, listed as PS): % Inhib=81.15
- % Inhib (splenomegaly) [4, 8]: 89.6%
- Net change from control (spleen weight) [4, 8]: Net change from control=0.0714
- Spleen weight, mean (x̄) [4, 8]: x̄=0.2560±0.0723 g
- % Inhib (splenomegaly) ([4]; FV 2x10^5 FFU, single i.p. injection 80 μg/mouse, listed as PS): % Inhib=89.58
- % Inhib (splenomegaly) [4, 9]: 90.7%
- Net change from control (spleen weight) [4, 9]: Net change from control=0.0841
- Spleen weight, mean (x̄) [4, 9]: x̄=0.2687±0.0621 g
- % Inhib (splenomegaly) ([4]; FV 10^6 FFU, 2 injections 80 µg/mouse, listed as PS): % Inhib=90.70
- % Inhib (splenomegaly) [4, 10]: 93.8%
- Net change from control (spleen weight) [4, 10]: Net change from control=0.0558
- Spleen weight, mean (x̄) [4, 10]: x̄=0.2404±0.0482 g
- % Inhib (splenomegaly) ([4]; FV 10^6 FFU, single i.p. injection 80 µg/mouse, listed as PS): % Inhib=93.82
- Spleen weight [4, 7]: 0.2722 Spleen weight (g ) and 0.2438 Spleen weight (g ) and 0.4924 Spleen weight (g ) and 0.2469 Spleen weight (g )
- Spleen weight [4, 8]: 0.2208 Spleen weight (g ) and 0.1791 Spleen weight (g ) and 0.3457 Spleen weight (g ) and 0.2784 Spleen weight (g )
- Spleen weight ([4]; FV 10^6 FFU i.v., 2 daily consecutive i.p. injections of 80 µg/mouse): 0.2457 Spleen weight (g ) and 0.3400 Spleen weight (g ) and 0.2938 Spleen weight (g ) and 0.1956 Spleen weight (g )
- Spleen weight ([4]; FV 10^6 FFU i.v., single i.p. injection 80 µg/mouse 24 h later, sacrificed ten days later): 0.2831 Spleen weight (g ) and 0.2761 Spleen weight (g ) and 0.2215 Spleen weight (g ) and 0.1810 Spleen weight (g )
- % inhibition (splenomegaly) ([5]; 5mcg per mouse i.v. with FV): 75.44%
- Spleen Weights, mean (x̄) ([5]; 5mcg per mouse i.v. with FV): x̄=0.3862 ±0.0353 grams
- % inhibition (splenomegaly) ([5]; 5mcg per mouse i.v. with FV, listed as PS): = 75.44%
- % inhibition (splenomegaly) ([5]; 20 mcg per mouse i.v. with FV): 100%
- Spleen Weights, mean (x̄) ([5]; 20 mcg per mouse i.v. with FV): x̄=0.1614 ±0.0253 grams
- % inhibition (splenomegaly) ([5]; 20 mcg per mouse i.v. with FV, listed as PS): 100%
- % inhibition (splenomegaly) ([5]; 50mcg per mouse i.v. with FV): 100%
- Spleen Weights, mean (x̄) ([5]; 50mcg per mouse i.v. with FV): x̄=0.1572 ±0.0217 grams
- % inhibition (splenomegaly) ([5]; 50mcg per mouse i.v. with FV, listed as PS): 100%
- Spleen Weights ([5]; 5mcg per mouse i.v. mixed with FV, sacrificed ten days later): 0.3425 grams and 0.3766 grams and 0.4005 grams and 0.4255 grams
- Spleen Weights ([5]; 20 mcg per mouse i.v. mixed with FV): 0.1655 grams and 0.1426 grams and 0.1433 grams and 0.1966 grams
- Spleen Weights ([5]; 50mcg per mouse i.v. mixed with FV): 0.1830 grams and 0.1674 grams and 0.1422 grams and 0.1365 grams
- CHOLEST ([6]; IPFVIVPS: FV intraperitoneal (2x10^5 FFU), Ps intravenous): 137 mg/dL
- ALBUMIN [6, 11]: 3.2 g/dL
- AP (Alkaline phosphatase) [6, 11]: 200 IU/l
- BU (Total Bilirubin) [6, 11]: 0.3 mg/dL
- GGT (Gamma-glutamyl-transpeptidase) [6, 11]: 4 miu/ml
- LDH (Lactate dehydrogenase) [6, 11]: 2305 IU/l
- SGOT [6, 11]: 244 IU/l
- SGPT [6, 11]: 135 IU/l
- Total PROTEIN [6, 11]: 5.5 g/dL
- CHOLEST ([6]; IVFVIPPS: FV intravenous (2x10^5 FFU), Ps intraperitoneal): 109 mg/dL
- ALBUMIN [6, 12]: 3.4 g/dL
- AP (Alkaline phosphatase) [6, 12]: 226 IU/l
- BU (Total Bilirubin) [6, 12]: 0.1 mg/dL
- LDH (Lactate dehydrogenase) [6, 12]: 3303 IU/l
- SGOT [6, 12]: 213 IU/l
- SGPT [6, 12]: 99 IU/l
- Total PROTEIN [6, 12]: 5.7 g/dL
- effect on RadLV-induced increase in H-2 expression (in words) ([1]; 30 µg per mouse i.p. 24 h after viral inoculation): No effects on H-2 expression
- mean fluorescent intensity in fluorescent units ([1]; individual mice, 30 μg/mouse i.p. 24 h after intrathymic RadLV, thymocytes ten days later): (713.3) fluorescent units; also recorded: (639) fluorescent units
- % of cells stained with antibody ([1]; individual mice, 30 μg/mouse i.p. 24 h after intrathymic RadLV, thymocytes ten days later, anti-H-2D^d antibody): 97.4% and 94.3%
